Experiments:
Assay type in all cases: cell-based
[1] = test system: regenerated shoots of Mentha arvensis variety Gomti; experiment: Survival of in vitro raised shoots on menthol containing MS basal medium
Description: (§1) The plant varieties analysed were Himalaya, Shivalik, Gomti, MAS-1, Kosi, Kalka of Mentha arvensis L. (2n=96). The suckers of these plant varieties were obtained from CIMAP's national gene bank for medicinal and aromatic plants for planting. The explant materials were collected from the field grown plants and surface sterilized by washing sequentially with 2% detergent, distilled water containing a few drops of Savlon (Johnson and Johnson, India), 0.1% acidified mercuric chloride and autoclaved distilled water before inoculation. About 1 cm long internodal pieces were inoculated in the MS medium (Murasighe and Skoog, 1962) containing vitamins, 100 mg l^−1 myo-inositol 3% wv^−1 sucrose, 1.5% wv^−1 agar (Difco), 0.5 .μg ml^−1 of an auxin, (NAA, 1-napthalene acetic acid) and 5 μg ml^−1 of a cytokinin (BAP, benzyl aminopurine) (Shasany et al, 1998). The cultures were grown at 25±2° C. and 400 to 600 lux light intensity with 16 h photoperiod. The regenerated shoots were separated 12 weeks after the explant inoculation for rooting and/or testing menthol tolerance.
(§2) The regenerated shoots (3-4 cm long, containing the apical bud and 2-3 nodes) separated after 12 weeks, were inoculated into MS basal medium with or without menthol (0 to 100 μg ml^−1). Concentration of menthol in each treatment was stepped up by 10 μg in a sequential manner. On each kind of these media, 5 independently regenerated shoots were inoculated per flask; 4 flasks were inoculated per replication and each treatment was replicated 5 times, making the number of flasks to 20 and number of explants to 100 for each concentration of menthol. The experiment was conducted in the completely randomized design (CRD) fashion. Cultures were incubated and maintained at 25±2° C. and 400-600 lux light intensity with 16-hour photoperiod. The wilting response and lethality in explants was recorded every 24 hours over a period of one week.

[2] = test system: regenerated shoots of Mentha arvensis variety Himalaya; experiment: as above
Description: as §1, §2

[3] = test system: regenerated shoots of Mentha arvensis variety Shivalik; experiment: as above
Description: as §1, §2

[4] = test system: calliclones (regenerated shoots) of Mentha arvensis cv. Himalaya; experiment: Large scale stepwise screening of calliclones on menthol screening medium
Procedure: Large scale screening of clones was carried out in various batches by raising the calliclones as above. A total of 2850 shoots were transferred to the screening medium containing 50 μg ml^−1 menthol and incubated for 1 week. The surviving shoots from this medium were stepwise transferred to media containing higher concentrations of menthol ([…]). Finally the tolerant clones surviving at 70 μg ml^−1 menthol concentration were transferred individually to MS basal medium containing vitamins for rooting. The looted plantlets were subsequently hardened and transferred to pots in the glass house to raise sufficient planting material (sucker) for field experiments.
After 7 days of culture 1263 twigs survived at 50 μg ml^−1 concentration of menthol. These surviving shoots were subsequently transferred to the medium containing 60 μg ml^−1 menthol At this concentration 942 twig turned brown and died within 7 days. Finally, the 321 twigs which survived were inoculated into the screening medium containing 70 μg ml^−1 menthol. In His tertiary level screening, only 30 shoots survived (Table 5). These clones were inoculated into the rooting medium and after rooting transferred to pots in the glasshouse. The acclimatized selected plantlets from the glasshouse were transferred to the field for sucker production in the month of September 1997. In the month of January 1998, the suckers developed from each plant were field planted with 5 replicates using randomized block design. The plants grown with standard agronomic practices were harvested twice, first after 110 days of planting and subsequently 70 days after the first harvest. Ultimately, these 30 menthol tolerant clones were multiplied and grown in the field in replicated plots of 5 m×5 m sizes. The twigs of 30 clones from the replicated trials were rechecked for tolerant phenotypes at a concentration of 70 μg ml^−1 menthol wherein, these survived even after 7 days. These were also tested for survival at one step higher concentration of menthol (80 μg ml^−1). At this concentration of menthol only 5 clones (GRB 3, 14, 24, 27, 30) survived.
2. Large scale screening of the heterogeneous population of molecular variants were carried out by inoculating the regenerated independent clones into the screening medium i.e., MS basal agar containing 50 μg ml^−1 menthol followed by incubation for 1 week.
3. The surviving shoots from this medium were step-wise transferred to media containing higher concentrations of menthol (60 and 70 μg ml^−1). Finally the tolerant clones surviving at 70 μg ml^−1 menthol concentration (which cause 99% killing) are transferred individually to MS basal medium containing vitamins for rooting.

[5] = 100-ppm menthol, twenty-four hours after incubation
[6] = menthol 10 μg ml^−1, 20 shoots tested per replication
[7] = menthol 20 μg ml^−1, 20 shoots tested per replication
[8] = menthol 30 μg ml^−1, 20 shoots tested per replication
[9] = menthol 40 μg ml^−1, 20 shoots tested per replication
[10] = menthol 50 μg ml^−1, 20 shoots tested per replication
[11] = menthol 60 μg ml^−1, 20 shoots tested per replication
[12] = menthol 70 μg ml^−1, 20 shoots tested per replication
[13] = menthol 80 μg ml^−1, 20 shoots tested per replication
[14] = menthol 90 μg ml^−1, 20 shoots tested per replication
[15] = menthol 100 μg ml^−1, 20 shoots tested per replication

`CC1CCC(C(C)C)C(O)C1` (stereo not drawn) [menthol] was tested, and the lethality [1, 5] was 99%, the “Survival after 7 days Number” value ([1]; menthol 10 μg ml^−1) was 20.0 ± 0.00 and the “Survival after 24 hours Number” value [1, 6] was 20.0 ± 0.00. For the same compound, the “Survival after 7 days Number” value ([1]; menthol 20 μg ml^−1) was 20.0 ± 0.00, the “Survival after 24 hours Number” value [1, 7] was 20.0 ± 0.00 and the “Survival after 7 days Number” value ([1]; menthol 30 μg ml^−1) was 20.0 ± 0.00. For the same compound, the “Survival after 24 hours Number” value [1, 8] was 20.0 ± 0.00, the “Survival after 7 days Number” value ([1]; menthol 40 μg ml^−1) was 16.8 ± 0.48 and the “Survival after 24 hours Number” value [1, 9] was 20.0 ± 0.00. The “Survival after 7 days Number” value ([1]; menthol 50 μg ml^−1) was 7.0 ± 0.41, the “Survival after 24 hours Number” value [1, 10] was 16.0 ± 0.90 and the “Survival after 7 days Number” value ([1]; menthol 60 μg ml^−1) was 4.0 ± 0.57. For the same compound, the “Survival after 24 hours Number” value [1, 11] was 12.0 ± 0.71, the “Survival after 7 days Number” value ([1]; menthol 70 μg ml^−1) was 0.4 ± 0.32 and the “Survival after 24 hours Number” value [1, 12] was 6.0 ± 0.32. For the same compound, the “Survival after 7 days Number” value ([1]; menthol 80 μg ml^−1) was 0.0 ± 0.00, the “Survival after 24 hours Number” value [1, 13] was 1.6 ± 0.31 and the “Survival after 7 days Number” value ([1]; menthol 90 μg ml^−1) was 0.0 ± 0.00. The “Survival after 24 hours Number” value [1, 14] was 1.0 ± 0.41, the “Survival after 7 days Number” value ([1]; menthol 100 μg ml^−1) was 0.0 ± 0.00 and the “Survival after 24 hours Number” value [1, 15] was 0.2 ± 0.26. For the same compound, the lethality [2, 5] was 100%, the “Survival after 7 days Number” value ([2]; menthol 10 μg ml^−1) was 20.0 ± 0.00 and the “Survival after 24 hours Number” value [2, 6] was 20.0 ± 0.00. The “Survival after 7 days Number” value ([2]; menthol 20 μg ml^−1) was 20.0 ± 0.00, the “Survival after 24 hours Number” value [2, 7] was 20.0 ± 0.00 and the “Survival after 7 days Number” value ([2]; menthol 30 μg ml^−1) was 20.0 ± 0.00. The “Survival after 24 hours Number” value [2, 8] was 20.0 ± 0.00, the “Survival after 7 days Number” value ([2]; menthol 40 μg ml^−1) was 17.6 ± 0.66 and the “Survival after 24 hours Number” value [2, 9] was 20.0 ± 0.00. The “Survival after 7 days Number” value ([2]; menthol 50 μg ml^−1) was 9.0 ± 0.41, the “Survival after 24 hours Number” value [2, 10] was 17.0 ± 0.91 and the “Survival after 7 days Number” value ([2]; menthol 60 μg ml^−1) was 2.0 ± 0.41. The “Survival after 24 hours Number” value [2, 11] was 14.0 ± 0.91, the “Survival after 7 days Number” value ([2]; menthol 70 μg ml^−1) was 0.2 ± 0.26 and the “Survival after 24 hours Number” value [2, 12] was 9.0 ± 0.91. The “Survival after 7 days Number” value ([2]; menthol 80 μg ml^−1) was 0.0 ± 0.00, the “Survival after 24 hours Number” value [2, 13] was 4.0 ± 0.58 and the “Survival after 7 days Number” value ([2]; menthol 90 μg ml^−1) was 0.0 ± 0.00. The “Survival after 24 hours Number” value [2, 14] was 2.0 ± 0.40, the “Survival after 7 days Number” value ([2]; menthol 100 μg ml^−1) was 0.0 ± 0.00 and the “Survival after 24 hours Number” value [2, 15] was 0.0 ± 0.00. For the same compound, the lethality [3, 5] was 98%, the “Survival after 7 days Number” value ([3]; menthol 10 μg ml^−1) was 20.0 ± 0.00 and the “Survival after 24 hours Number” value [3, 6] was 20.0 ± 0.00. The “Survival after 7 days Number” value ([3]; menthol 20 μg ml^−1) was 20.0 ± 0.00, the “Survival after 24 hours Number” value [3, 7] was 20.0 ± 0.00 and the “Survival after 7 days Number” value ([3]; menthol 30 μg ml^−1) was 20.0 ± 0.00. For the same compound, the “Survival after 24 hours Number” value [3, 8] was 20.0 ± 0.00, the “Survival after 7 days Number” value ([3]; menthol 40 μg ml^−1) was 18.0 ± 0.41 and the “Survival after 24 hours Number” value [3, 9] was 20.0 ± 0.00. The “Survival after 7 days Number” value ([3]; menthol 50 μg ml^−1) was 11.0 ± 0.41, the “Survival after 24 hours Number” value [3, 10] was 18.0 ± 0.91 and the “Survival after 7 days Number” value ([3]; menthol 60 μg ml^−1) was 5.0 ± 0.71. For the same compound, the “Survival after 24 hours Number” value [3, 11] was 15.0 ± 0.11, the “Survival after 7 days Number” value ([3]; menthol 70 μg ml^−1) was 2.0 ± 0.32 and the “Survival after 24 hours Number” value [3, 12] was 8.0 ± 0.91. The “Survival after 7 days Number” value ([3]; menthol 80 μg ml^−1) was 0.0 ± 0.00, the “Survival after 24 hours Number” value [3, 13] was 4.0 ± 0.41 and the “Survival after 7 days Number” value ([3]; menthol 90 μg ml^−1) was 0.0 ± 0.00. The “Survival after 24 hours Number” value [3, 14] was 2.0 ± 0.41, the “Survival after 7 days Number” value ([3]; menthol 100 μg ml^−1) was 0.0 ± 0.00 and the “Survival after 24 hours Number” value [3, 15] was 0.4 ± 0.32. The twigs survived ([4]; menthol 50 μg ml^−1, after 7 days of culture, of a total of 2850 shoots) was 1263, the twigs which survived ([4]; menthol 60 μg ml^−1, of the 1263 survivors of 50 μg ml^−1) was 321 and the “twigs turned brown and died” value ([4]; menthol 60 μg ml^−1, within 7 days, of the 1263 survivors of 50 μg ml^−1) was 942. It also gave a killing ([4]; menthol 70 μg ml^−1) of 99%, a shoots survived ([4]; menthol 70 μg ml^−1, tertiary level screening of 321 twigs) of 30 and a clones survived ([4]; menthol 80 μg ml^−1, twigs of the 30 selected tolerant clones from field trials) of 5.

Source: patent publication US6423541B1, “Process for in vitro selection of high methol producing genotypes” (Council of Scientific&Industrial Reaearch, priority 2000, dated 2002)
